One data set can be described thus: physchem. The following applies: for solubility kinetic at 1.5 h: pH 7.4, aqueous buffer, kinetic from dmso stock. As for the experimental part: The kinetic solubility of test compounds in buffer was evaluated using a 96 well filtration plate format. A 500 μM assay solution in PBS, pH7.4 (or other assay buffer, as needed) was generated form a DMSO stock solution (up to 10 mM). Samples were transferred to a 96 Millipore MultiScreen HTS 96-well Filter plate (Cat# MSSLBPC10) mixed by shaking for 1.5 hours and processed by filtration prior to quantitation by HPLC-UV. Amiodarone and testosterone were used as reference controls.

Data set [1] has as its target T1, human farnesoid X receptor (Homo sapiens, UniProt Q96RI1).
T1 construct: CMX-farnesoid X receptor (full length human farnesoid X receptor); expressed in transfected cells; host or cells: CV-1 African Green Monkey Kidney cells
T1 sequence (Q96RI1 1-472 isoform Q96RI1-2): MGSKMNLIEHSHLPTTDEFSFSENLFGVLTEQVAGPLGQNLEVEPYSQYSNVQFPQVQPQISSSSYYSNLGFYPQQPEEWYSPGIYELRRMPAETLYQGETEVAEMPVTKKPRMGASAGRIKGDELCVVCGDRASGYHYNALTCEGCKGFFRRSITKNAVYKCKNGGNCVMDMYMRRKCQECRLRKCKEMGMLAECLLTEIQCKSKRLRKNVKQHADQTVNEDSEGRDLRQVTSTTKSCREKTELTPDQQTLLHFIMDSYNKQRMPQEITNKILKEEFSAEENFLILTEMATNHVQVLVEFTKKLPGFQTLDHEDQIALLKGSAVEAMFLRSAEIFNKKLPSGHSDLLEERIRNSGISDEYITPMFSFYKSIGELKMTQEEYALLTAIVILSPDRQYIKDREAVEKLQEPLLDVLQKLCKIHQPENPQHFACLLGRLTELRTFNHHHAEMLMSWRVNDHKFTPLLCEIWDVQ
T1 sequence (P19793 1-462 partner): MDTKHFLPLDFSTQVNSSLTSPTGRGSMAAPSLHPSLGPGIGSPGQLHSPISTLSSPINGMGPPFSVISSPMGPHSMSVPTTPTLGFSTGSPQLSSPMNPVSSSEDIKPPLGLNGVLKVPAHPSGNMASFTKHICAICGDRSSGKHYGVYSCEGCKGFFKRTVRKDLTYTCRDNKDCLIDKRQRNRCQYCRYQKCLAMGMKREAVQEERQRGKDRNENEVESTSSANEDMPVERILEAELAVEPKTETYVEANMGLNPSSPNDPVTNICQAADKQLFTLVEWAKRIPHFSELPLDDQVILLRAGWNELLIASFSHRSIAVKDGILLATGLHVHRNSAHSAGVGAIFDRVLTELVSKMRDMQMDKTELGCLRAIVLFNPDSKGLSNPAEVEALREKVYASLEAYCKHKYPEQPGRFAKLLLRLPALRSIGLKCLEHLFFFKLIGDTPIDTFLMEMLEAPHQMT
Briefly: FXR in vitro assays (farnesoid X receptor/ECREx7 co-transfection assay, TR-FRET assay), Table I. The format is cell-based. The following applies: for pEC50: agonist activity, one or more of the in vitro assays, read-out: EC50; for Emax: read-out: % Efficacy. The method in brief:
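CV-1 monkey kidney cells transfected for an FXR/ECREx7 luciferase co-transfection reporter; luciferase read 18-20 h later in lysates. 8-point dose-response at ½-log spacing, 4 wells per point; EC50/IC50 from four-parameter Hill fit, averaged over at least 3 independent experiments.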

A word on the solubility (kinetic): it is the concentration staying in solution when a stock, usually in DMSO, is diluted into the medium. A word on the pEC50: it is −log10 of the EC50, conventionally taken in molar units.

pEC50: −log10 of the molar value. Values after ≈ are worked out from the molar mass of the structure shown. Some results are limits rather than exact numbers.

Take `CC(C)OC(=O)C1=CN(C(=O)c2cc(F)cc(C(F)(F)F)c2)CC(C)(C)c2c1[nH]c1ccccc21` [Example 134, 1-methylethyl 3-{[3-fluoro-5-(trifluoromethyl)phenyl]car-bonyl}-1,1-dimethyl-1,2,3,6-tetrahydroazepino[4,5-b]indole-5-carboxylate]: the kinetic solubility at 1.5 h in “physchem” is 1 to 10 µM (≈ 0.488 to 4.88 µg/mL). Also, in data set [1], the pEC50 was 7.00 to 8.00 and the Emax was above 100%.

With `CC(C)OC(=O)C1=CN(C(=O)N2CCN(C(C)C)CC2)CC(C)(C)c2c1[nH]c1ccccc21` [Example 30, 1-methylethyl 1,1-dimethyl-3-{[4-(1-methylethyl)piperazin-1-yl)carbonyl}-1,2,3,6-tetrahydroazepino[4,5-b]indole-5-carboxylate], in the data set “physchem”, the kinetic solubility at 1.5 h is above 10 µM. Further, in data set [1], the negative logarithm of the EC50 (pEC50) is 6.00 to 7.00 and the Emax was above 100%.

Regarding “1-methyethyl 1,1-dimethyl- 3-({4-[4-(trifluoromethyl)- 1H-pyrazol-1- yl]phenyl}carbonyl)-1,2,3,6- tetrahydroazepino[4,5- b]indole-5-carboxylate [Example 158]”, the “Kinetic Solubility μM” value in “physchem” (500 μM assay solution in PBS, pH7.4 from DMSO stock, filtration, HPLC-UV) is “C (C=0.1-1.0 μM)”. Moreover, the “% Efficacy” value in data set [1] was “A (key: A=>100%; B=80-100%; C=60-80%; D=40-60%; E=<40%)”.

In the data set “physchem”, `CC(C)OC(=O)C1=CN(C(=O)N2CCN(C)CC2)CC(C)(C)c2c1[nH]c1cc(F)ccc21` [Example 35, 1-methylethyl 8-fluoro-1,1-dimethyl-3-[(4-methylpiperazin-1-yl)carbonyl]-1,2,3,6-tetrahydroazepino[4,5-b]indole-5-carboxylate] came in with a solubility (kinetic) at 1.5 h above 10 µM. In addition, in data set [1], the pEC50 was 7.00 to 8.00 and the Emax was above 100%.

On to `CC(C)OC(=O)C1=CN(C(=O)N2CCCC(CN(C)C)C2)CC(C)(C)c2c1[nH]c1ccccc21` (centres unmarked) [Example 48, 1-methylethyl 3-({3-[(dimethylamino)methyl]piperidin-1-yl}carbonyl)-1,1-dimethyl-1,2,3,6-tetrahydroazepino[4,5-b]indole-5-carboxylate], for which, in “physchem”, the solubility (kinetic) at 1.5 h was above 10 µM. For the same compound, in data set [1], the pEC50 is 5.00 to 6.00 and the Emax is above 100%.

For `CC1(C)CN(C(=O)c2ccc(F)c(F)c2)C=C(C(=O)OC[C@@H](O)CO)c2[nH]c3ccccc3c21` [Example 171, (2S)-2,3-dihydroxypropyl-3-[(3,4-difluorophenyl)carbonyl]-1,1-dimethyl-1,2,3,6-tetrahydroazepino[4,5-b]indole-5-carboxylate], in the data set “physchem”, the solubility (kinetic) at 1.5 h is above 10 µM. Moreover, in data set [1], the pEC50 was 7.00 to 8.00 and the Emax was above 100%.

As for `CC(C)OC(=O)C1=CN(C(=O)c2ccc(C(F)(F)F)c(Cl)c2F)CC(C)(C)c2c1[nH]c1ccccc21` [Example 132, 1-methylethyl 3-{[3-chloro-2-fluoro-4-(trifluoromethyl)phenyl]car-bonyl}-1,1-dimethyl-1,2,3,6-tetrahydroazepino[4,5-b]indole-5-carboxylate], the solubility (kinetic) at 1.5 h in the data set “physchem” was 1 to 10 µM (≈ 0.523 to 5.23 µg/mL). For the same compound, in data set [1], the pEC50 was 6.00 to 7.00 and the Emax is above 100%.

The compound `CC(C)OC(=O)C1=CN(C(=O)N2CCCN(C)CC2)CC(C)(C)c2c1[nH]c1ccccc21` [Example 43, 1-methyl 1,1-dimethyl-3-[(4-methyl-1,4-diazepan-1-yl)carbonyl]-1,2,3,6-tetrahydroazepino[4,5-b]indole-5-carboxylate] registered a solubility (kinetic) at 1.5 h in “physchem” above 10 µM. In data set [1], the pEC50 is 6.00 to 7.00 and the Emax is above 100%.

In “physchem”, `CC(C)OC(=O)C1=CN(C(=O)N2CCN(C)CC2)CC(C)(C)c2c1[nH]c1ccccc21` [Example 16] yielded a solubility (kinetic) at 1.5 h of 0.1 to 1 µM (≈ 0.0425 to 0.425 µg/mL). In addition, in data set [1], the pEC50 is 6.00 to 7.00 and the Emax was above 100%.

`CC(C)OC(=O)C1=CN(C(=O)c2cc(C(F)(F)F)cc(C(F)(F)F)c2)CC(C)(C)c2c1[nH]c1ccccc21` [Example 135, 1-methylethyl 3-{[3,5-bis(trifluoromethyl)phenyl]carbonyl}-1,1-dimethyl-1,2,3,6-tetrahydroazepino[4,5-b]indole-5-carboxylate]: the solubility (kinetic) at 1.5 h in “physchem” is 1 to 10 µM (≈ 0.538 to 5.38 µg/mL). In data set [1], the pEC50 was 7.00 to 8.00 and the Emax was above 100%.

On to `CC(=O)N1CCCN(Cc2cccc(C(=O)N3C=C(C(=O)OC(C)C)c4[nH]c5ccccc5c4C(C)(C)C3)c2)CC1` [Example 177, 1-methylethyl 3-({3-[(4-acetyl-1,4-diazepan-1-yl)methyl]phenyl}carbonyl)-1,1-dimethyl-1,2,3,6-tetrahydroazepino[4,5-b]indole-5-carboxylate], for which, in the data set “physchem”, the kinetic solubility at 1.5 h is 1 to 10 µM (≈ 0.557 to 5.57 µg/mL). Further, in data set [1], the pEC50 is 6.00 to 7.00 and the Emax is above 100%.

Turning to `CC(C)OC(=O)C1=CN(C(=O)c2cc(C(F)(F)F)ccc2C(F)(F)F)CC(C)(C)c2c1[nH]c1ccccc21` [Example 137, 1-methylethyl 3-{[2,5-bis(trifluoromethyl)phenyl]carbonyl}-1,1-dimethyl-1,2,3,6-tetrahydroazepino[4,5-b]indole-5-carboxylate], the solubility (kinetic) at 1.5 h in the data set “physchem” lay in the range of 0.1 to 1 µM (≈ 0.0538 to 0.538 µg/mL). In data set [1], the pEC50 is 6.00 to 7.00 and the Emax is above 100%.

On to `CC1(C)CN(C(=O)c2ccc(F)c(F)c2)C=C(C(=O)OCCO)c2[nH]c3ccccc3c21` [Example 196, 2-hydroxyethyl 3-[(3,4-difluorophenyl)carbonyl]-1,1-dimethyl-1,2,3,6-tetrahydroazepino[4,5-b]indole-5-carboxylate], for which the solubility (kinetic) at 1.5 h in “physchem” was in the range of 1 to 10 µM (≈ 0.44 to 4.4 µg/mL). Also, in data set [1], the pEC50 was 7.00 to 8.00 and the Emax is above 100%.

`Cc1ccc(C(=O)N2C=C(C(=O)OC(C)C)c3[nH]c4ccccc4c3C(C)(C)C2)cc1F` [Example 130, 1-methylethyl 3-[(3-fluoro-4-methylphenyl)carbonyl]-1,1-dimethyl-1,2,3,6-tetrahydroazepino[4,5-b]indole-5-carboxylate] had a solubility (kinetic) at 1.5 h in “physchem” of 1 to 10 µM (≈ 0.435 to 4.35 µg/mL). Also, in data set [1], the pEC50 is 7.00 to 8.00 and the Emax is above 100%.

For the compound `CC(C)OC(=O)C1=CN(C(=O)N[C@H]2CCCNC2)CC(C)(C)c2c1[nH]c1ccccc21` [Example 54, 1-mcthylethyl 1,1-dimethyl-3-{[(3S)-piperidin-3-ylamino]carbonyl}-1,2,3,6-tetrahydroazepino[4,5-b]indole-5-carboxylate], the solubility (kinetic) at 1.5 h in the data set “physchem” is above 10 µM. Also, in data set [1], the pEC50 was 5.00 to 6.00 and the Emax was in the range of 40 to 60%.

`CC(C)OC(=O)C1=CN(C(=O)N2CCOCC2)CC(C)(C)c2c1[nH]c1ccccc21` [Example 47, 1-methylethyl 1,1-dimethyl-3-(morpholin-4-ylcarbonyl)-1,2,3,6-tetrahydrazepino[4,5-b]indole-5-carboxylate] yielded a solubility (kinetic) at 1.5 h in the data set “physchem” above 10 µM. Besides, in data set [1], the pEC50 is 7.00 to 8.00 and the Emax was above 100%.

In “physchem”, `CCNC(=O)N1CCN(Cc2cccc(C(=O)N3C=C(C(=O)OC(C)C)c4[nH]c5ccccc5c4C(C)(C)C3)c2)CC1` [Example 185, 1-methylethyl 3-{[3-({4-[(ethylamino)carbonyl]piper-azin-1-yl}methyl)phenyl]carbonyl}-1,1-dimethyl-1,2,3,6-tetrahydroazepino[4,5-b]indole-5-carboxylate] returned a kinetic solubility at 1.5 h of 1 to 10 µM (≈ 0.572 to 5.72 µg/mL). In data set [1], the pEC50 was 6.00 to 7.00 and the Emax was above 100%.

The compound `CCCN1CCN(C(=O)N2C=C(C(=O)OC(C)C)c3[nH]c4ccccc4c3C(C)(C)C2)CC1` [Example 31] had a kinetic solubility at 1.5 h in the data set “physchem” of 1 to 10 µM (≈ 0.453 to 4.53 µg/mL). Also, in data set [1], the pEC50 is 6.00 to 7.00 and the Emax was above 100%.
